Results as given in patent US4072743A, “N^2 -arylsulfonyl-L-argininamides and the pharmaceutically acceptable salts thereof” (Mitsubishi Chemical Industries Limited, priority 1974, dated 1978).

What was measured:
mice = assay: Acute toxicity (LD50) by intraperitoneal administration in mice; format: in vivo; conditions: mice (male, 20 g)
Excerpt: Representative LD50 values, for example, for N^2 -(5,6,7,8-tetrahydro-1-naphthylsulfonyl)-N-(2-methoxyethyl)glycine, N^2 -(7-methyl-2-naphthylsulfonyl)-N-butylglycine and N^2 -(6,7-dimethyl-1-naphthylsulfonyl)-N-(2-methoxyethyl)glycine are above 1,500 milligrams per kilogram, respectively.

thrombin = biological target: T1, thrombin (Bos taurus, UniProt P00735); assay: Fibrinogen coagulation time (thrombin-induced clotting of bovine fibrinogen); format: biochemical; conditions: thrombin 5 units/ml, borate saline buffer pH 7.4, 25° C, normal coagulation time 50-55 seconds prolonged to 100-110 seconds
T1 construct: purchased Mochida Pharmaceutical Co., Ltd
Procedure: The measurement of the fibrinogen coagulation time was conducted as follows:
Immediately after mixing, the reaction mixture was transferred from the ice bath to a bath maintained at 25° C. Coagulation times were taken as the period between the time of transference to the 25° C bath and the time of the first appearance of fibrin threads.
The term "concentration required to prolong the coagulation time by a factor of two" is the concentration of an active ingredient required to prolong the normal coagulation time 50-55 seconds to 100-110 seconds.

SMILES	acute toxicity value (LD50) (mice)	Concentration required to prolong the coagulation time by a factor of two (thrombin)
COCCN(CC(=O)O)C(=O)[C@H](CCCNC(=N)N)NS(=O)(=O)c1cccc2c1CCCC2 [Sample 3, N^2-(5,6,7,8-tetrahydro-1-naphthylsulfonyl)-L-arginyl-N-(2-methoxyethyl)glycine]	above 1,500 milligrams per kilogram	10 µM
CCCCN(CC(=O)O)C(=O)[C@H](CCCNC(=N)N)NS(=O)(=O)c1cccc2c(N(C)C)cccc12 [Sample 24, N^2-(5-dimethylamino-1-naphthylsulfonyl)-L-arginyl-N-butylglycine]	–	4 µM
CCCCN(CC(=O)O)C(=O)[C@H](CCCNC(=N)N)NS(=O)(=O)c1cccc2c1CCCC2 [Sample 1, N^2-(5,6,7,8-tetrahydro-1-naphthylsulfonyl)-L-arginyl-N-butylglycine]	–	20 µM
CCCCN(CC(=O)O)C(=O)[C@H](CCCNC(=N)N)NS(=O)(=O)c1ccc2ccc(C)cc2c1 [Sample 14, N^2-(7-methyl-2-naphthylsulfonyl)-L-arginyl-N-butylglycine]	above 1,500 milligrams per kilogram	0.3 µM
CCCCNC(=O)[C@H](CCCNC(=N)N)NS(=O)(=O)c1cccc2c(N(C)C)cccc12 [N^2 -dansyl-N-butyl-L-argininamide, reference compound]	75 milligrams per kilogram	–
N=C(N)NCCC[C@H](NS(=O)(=O)c1ccc2c(c1)CCCC2)C(=O)N(CC(=O)O)Cc1ccccc1 [Sample 4, N^2-(5,6,7,8-tetrahydro-2-naphthylsulfonyl)-L-arginyl-N-benzylglycine]	–	30 µM
CCCCN(C)C(=O)[C@H](CCCNC(=N)N)NS(=O)(=O)c1cccc2c(N(C)C)cccc12 [N^2 -dansyl-N-methyl-N-butyl-L-argininamide, reference compound]	70 milligrams per kilogram	–
COCCN(CC(=O)O)C(=O)[C@H](CCCNC(=N)N)NS(=O)(=O)c1cccc2cc(C)c(C)cc12 [Sample 23, N^2-(6,7-dimethyl-1-naphthylsulfonyl)-L-arginyl-N-(2-methoxyethyl)glycine]	above 1,500 milligrams per kilogram	10 µM
COCCN(CC(=O)O)C(=O)[C@H](CCCNC(=N)N)NS(=O)(=O)c1cccc2ccc(C)cc12 [Sample 22, N^2-(7-methyl-1-naphthylsulfonyl)-L-arginyl-N-(2-methoxyethyl)glycine]	–	20 µM
COCCN(CC(=O)O)C(=O)[C@H](CCCNC(=N)N)NS(=O)(=O)c1ccc2ccc(C)cc2c1 [Sample 15, N^2-(7-methyl-2-naphthylsulfonyl)-L-arginyl-N-(2-methoxyethyl)glycine]	–	0.2 µM
Cc1ccc2ccc(S(=O)(=O)N[C@@H](CCCNC(=N)N)C(=O)N(CC(=O)O)CC3CCCCC3)cc2c1 [Sample 17, N^2-(7-methyl-2-naphthylsulfonyl)-L-arginyl-N-cyclohexylmethylglycine]	–	14 µM
